The record followed here is EPA's ToxValDB 9.5 (doi:10.2903/j.efsa.2008.122r).

One series concerns Rattus norvegicus. The conditions noted are these: for NOAEL: body weight.
The next series relates to Apis mellifera. The conditions noted are these: acute; duration: 48 hours; dermal; mortality.
For a further series, the system named is Oncorhynchus mykiss. The conditions noted are these: chronic/long-term; duration: 35 days; growth.
Another series deals with Aphidius rhopalosiphi. The conditions noted are these: not reported.
A further series relates to Daphnia magna. The settings on record: chronic/long-term; duration: 21 days.
The next series relates to Cyprinus carpio. The conditions noted are these: acute; duration: 96 hours; mortality.

In brackets after ≈: the same amount, converted by molar mass.

For orientation: NOAEL means the highest dose or exposure tested at which no adverse effect was seen. As to `O=C(Nc1ccc(F)cc1F)c1cccnc1Oc1cccc(C(F)(F)F)c1` [Diflufenican], the LD50 was more than 5000 mg/kg with Rattus norvegicus (acute, oral, mortality); more than 2150 mg/kg in the series on Bird (acute, oral, unspecified, mortality); more than 100 µg/piece with Apis mellifera. Besides, the NOAEL stood at 23.3 mg/kg-day in the series on Rattus norvegicus (chronic, duration: 2 years); 35.5 mg/kg-day in the series on Rattus norvegicus (reproduction developmental, M); 19.5 mg/kg-day in the series on Rattus norvegicus (subchronic, duration: 13 weeks, oral). Further, the NOEC was determined as 91.8 mg/kg in the series on Bird (reproductive); 1000 mg/kg with Tagia sp. (chronic/long-term, reproduction); 0.015 mg/L with Oncorhynchus mykiss; 0.052 mg/L in the series with Daphnia magna. For the same molecule, the LC50 with Tagia sp. (acute, duration: 14 days, mortality) is more than 1000 mg/kg; in the series with Cyprinus carpio, 0.0985 µg/mL (≈ 0.25 µM). In addition, the LEL in the series on Aphidius rhopalosiphi (mortality) and with Aphidius rhopalosiphi (reproduction) was 188 g/ha throughout.
